Residues, ends and D or L forms follow the SMILES beside them.
Legend:
gastric EC-cells = test: Extra-pineal synthesis of melatonin: enteroendocrine and serotonin-positive cell density in stomach after epiphysectomy; type: in vivo, male Wistar rats; details: for NEND/1 mm^2 (density of entero-endocrine cells), Fundal / NEND/1 mm^2 (density of entero-endocrine cells), Pyloric / Nser/1 mm^2 (density of serotonin-positive cells), Pyloric: 0.5 μg subcutaneously 10 days
Experimental: The research was carried out on male Wistar rats weighing 130-140 g. The total number of the animals (23) was divided into 5 groups. The 1st group (control) included intact animals. The animals of groups 2-5 underwent epiphysectomy (EE). In 3 weeks after the surgery (on the 21st day) the animals of the 2nd and 3rd groups were subcutaneously injected with sodium chloride in dose 0.5 ml for the next 10 days. The animals of groups 4 and 5 were administered with L-Ala-L-Glu-L-Asp-Gly tetrapeptide (SEQ ID NO: 1) in dose 0.5 μg according to the same scheme.
Slaughtering of the animals and isolation of their organs were conducted from 10 a.m. to 12 noon by daylight with the use of Nembutal anaesthesia (50 mg/kg). The animals of groups 1, 2 and 4 were slaughtered in 3 days upon the final drug administration (on the 33rd day after the operation and the onset of the experiment), while the animals of groups 3 and 5-in 12 days (on the 42nd day after epiphysectomy). Examined were the main organs of the diffuse neuroendocrine system (DNES): stomach, thyroid gland, and pancreas.
The surgery—epiphysectomy—was conducted under ether anaesthesia according to the devised technique. A 1-1.5 cm long incision was made along the central line of the head. Upon the uncovering of the scull cap an aperture was drilled over the sinus confluence point by means of a hollow 0.5 cm-diameter auger, which was manufactured of a metal tube especially for the experiment. The epiphysis was extracted by means of ophthalmic forceps through the opening in the cranium. The trepanation aperture was covered with an osteal fragment. The skin incision was sewn with silk threads.
Fragments of the extracted organs were fixed for 24 hours in Buen sour liquid for optic microscopy and according to Karnovsky for electron microscopy. Material dehydration and filling it in with paraffin for optic microscopy, as well as epone mixture for ultra-structural examination were prepared according to generally accepted techniques. Paraffin sections (7 μm) were placed on a microscope slide covered with a poly-L-lysine film (Sigma). Ultra-thin sections (100 nm) prepared on LKB-7A microtome (LKB) were contrasted with uranyl acetate and plumbum citrate.
Histological and immunohistochemical examinations were carried out with a Jenamed-2 microscope (Zeiss). Electron-microscopic examination was conducted with a electronic JEM-100S microscope (JEOL).
For staining hematoxyline-eosin was applied. The total population of APUD-cytes in the pyloric and fundal stomach sections was determined according to Grimelius' histochemical silvering method (25).
Immunohistochemical exposure of enterochromophine-cells (EC-cells) was conducted by applying uniclonic antibodies of mice to serotonin (Dako, 1:15 titre). The uniclonic antibodies were identified according to avidin-biotin-peroxidase (ABP) method (Vectastain kit) in order to measure immune serum globulins of mice.
The quantitative studies were carried out by means of computer analysis system of microscopic imprints (Imstar) with the use of Morphostar and Colquant (Imstar) applied licensed computer programmes, in accordance with the basic principles of stereology and morphometry (26).
The quantitative density of enteroendocrine (END) (NEND/1 mm^2) and serotonin-positive cells (Nser/1 mm^2) was estimated in 10 visual fields. The test area (S) constituted 5 mm^2.
For the statistical processing of the acquired data the non-parametric U-criterion by Mann/Whitney was applied.

[1] = test system: Drosophila melanogaster of LA strain; test: Life span and ageing rate, LA strain; type: in vivo; details: for ALS / Me / LSmax (maximal life span): 0.00001% of medium weight; for LSmax (maximal life span): in days
From the text: The impact produced by L-Ala-L-Glu-L-Asp-Gly tetrapeptide (SEQ ID NO: 1) on catalase activity, the content of the products of lipid peroxide oxidation (LPO), life span, and the ageing rate were studied in Drosophila melanogaster of LA strain.
One-day old flies were placed in test tubes, 10 individuals of the same sex in each. Every 2 days they were transferred to a fresh medium taking into consideration the number of deceased individuals. The average and maximal life spans were defined. The ageing rate was calculated by the parameters of Gomperz equation.
L-Ala-L-Glu-L-Asp-Gly tetrapeptide (SEQ ID NO: 1) was applied in the larvae of the 3rd age in dose 0.00001% of the culture medium weight, which constituted approximately 0.015 mg/100 ml. Catalase activity was estimated by generally accepted methods in the homogenates of adult 14 days old flies. The experiment was carried out with a subsequent repetition.
Regression and dispersal analyses served as the basic technique of statistic processing. The authenticity of differences was confirmed by the method of minimal relevant diversity.

catalase [2] = test: Catalase activity in 14-day old flies of HEM strain; type: in vivo, Drosophila melanogaster of HEM strain; details: 0.00001% of culture medium weight
From the text: L-Ala-L-Glu-L-Asp-Gly tetrapeptide (SEQ ID NO: 1) was applied in Drosophila melanogaster larvae of the 2nd age of HEM strain selected for a high ageing rate (20). HEM strain is characterised by the unique dynamics of embryonic mortality, which consists in an increased frequency of early embryonic lethal outcomes from 65% on the 1st day of egg-laying up to 95% on the 4th day, in a reduced average life span (29 days), and in a raised intensity of lipid peroxide oxidation.
L-Ala-L-Glu-L-Asp-Gly tetrapeptide (SEQ ID NO: 1) was added in proportion 0.00001% of the culture medium weight, which was an extremely low dose. The doses described in literature on the influence of various substances on Drosophila melanogaster usually ranged from 0.001 to 0.01%.
Biochemical parameters were studied on 14-day old flies. Among them the activity of catalase activity and the intensity of tissue chemoluminescence were analysed (21, 22, 23). Catalase is the basic enzyme of anti-oxidation defence. […] Luminol-dependent chemoluminescence, induced by hydrogen peroxide, reflects the stage of active oxygen forms in tissues. Thus, a decrease in the chemoluminescence intensity indicates an increase in the organism ability to resist oxidative stress.

catalase [3] = test: Catalase activity in homogenates of 7-day old flies of EA strain; type: in vivo, Drosophila melanogaster of EA strain
Experimental: Drosophila melanogaster of EA strain served as a model for studying the influence of L-Ala-L-Glu-L-Asp-Gly tetrapeptide (SEQ ID NO: 1) on catalase activity, tissue chemoluminescence, and life span.
L-Ala-L-Glu-L-Asp-Gly tetrapeptide (SEQ ID NO: 1) was applied in the larvae of the 3rd age in dose 0.00001% of the culture medium weight, which constituted approximately 0.015 mg/100 ml. Catalase activity and the intensity of chemoluminescence were estimated in the homogenates of adult 7-day old flies by generally accepted methods. The experiment was conducted with a subsequent 5 repetition.
Regression and dispersal analyses served as the basic technique of statistic processing.

[4] = epiphysectomised rats, 3rd day upon the end of drug administration
[5] = epiphysectomised rats, 12th day upon the end of drug administration

Compound: C[C@H](N)C(=O)N[C@@H](CCC(=O)O)C(=O)N[C@@H](CC(=O)O)C(=O)NCC(=O)O [L-Ala-L-Glu-L-Asp-Gly tetrapeptide, L-alanyl-L-glutamyl-L-aspartyl-glycine] (H-AEDG-OH)
- Extra-pineal synthesis of serotonin and melatonin in gastric EC-cells (gastric EC-cells; epiphysectomised rats): promotes the extra-pineal synthesis of serotonin and melatonin
- NEND/1 mm^2 (density of entero-endocrine cells), Fundal (gastric EC-cells; [4]): 64 ± 5 /1 mm^2
- NEND/1 mm^2 (density of entero-endocrine cells), Pyloric (gastric EC-cells; [4]): 21 ± 1 /1 mm^2
- Nser/1 mm^2 (density of serotonin-positive cells), Pyloric (gastric EC-cells; [4]): 26 ± 2 /1 mm^2
- NEND/1 mm^2 (density of entero-endocrine cells), Fundal (gastric EC-cells; [5]): 47 ± 9 /1 mm^2
- NEND/1 mm^2 (density of entero-endocrine cells), Pyloric (gastric EC-cells; [5]): 19 ± 1 /1 mm^2
- Nser/1 mm^2 (density of serotonin-positive cells), Pyloric (gastric EC-cells; [5]): 26 ± 3 /1 mm^2
- Effect on the epiphysectomy impact on DNES cells (gastric EC-cells; within 3 days upon the end of administration, maintained for 12 days): complete suppression of the epiphysectomy impact
- LSmax without taking into consideration intersexual distinctions ([1]; both sexes): notably extended
- G 10^2 (parameter of Gomperz equation) ([1]; females): 4.3 ± 0.90 days^−1
- LnR0 (parameter of Gomperz equation) ([1]; females): -3.806 ± 0.2580 day⁻¹
- MRDT ([1]; females): 3.8
- Type of geroprotector (survival rate curves and Gomperz charts) ([1]; females): geroprotector of the 1st type
- ALS ([1]; females): 20 ± 1.3 days
- Me ([1]; females): 17 days
- LSmax (maximal life span) ([1]; females): 44 ± 1.9
- G 10^2 (parameter of Gomperz equation) ([1]; males): 10.9 ± 3.45 days^−1
- LnR0 (parameter of Gomperz equation) ([1]; males): −5.496 ± 0.711 days^1
- MRDT ([1]; males): 2.9
- Type of geroprotector (survival rate curves and Gomperz charts) ([1]; males): geroprotector of the 3rd type
- ALS ([1]; males): 24 ± 0.96 days
- Me ([1]; males): 28.5 days
- LSmax (maximal life span) ([1]; males): 33 ± 0.9
- Catalase activity (catalase [2]; females): 98.8 ± 1.62 mmole H2O2/mg of protein per min.
- Catalase activity (catalase [2]; males): 132.3 ± 3.68 mmole H2O2/mg of protein per min.
- Specific activity of catalase (catalase [3]; females): 82.78 ± 2.957 μmole H2O2/mg of protein per min.
- Specific activity of catalase (catalase [3]; males): 100.39 ± 3.807 μmole H2O2/mg of protein per min.

Source: patent publication US6727227B1, “Tetrapetide revealing geroprotective effect, pharmacological substance on its basis, and the method of its application” (Obschestvo S Ogranichennoi Otvetstven-Nostiju “Klinika …, priority 2002, dated 2004)
